According to PubChem BioAssay (NCI):
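Where inhibition never reached the appropriate level, the endpoint shown equals the highest concentration tested. Otherwise, values were interpolated linearly from a five-concentration, 48-hour dose response in 96-well plates. At the GI50, growth is halved. TGI: concentration producing complete growth inhibition.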

Key:
Test in all cases: growth of human tumour cells (NCI), 48 h
[1] = system: OVCAR-8 ovarian
[2] = system: SK-MEL-2 melanoma
[3] = system: BT-549 breast
[4] = system: OVCAR-5 ovarian
[5] = system: SW-620 colon
[6] = system: 786-0 renal
[7] = system: RXF 393 renal
[8] = system: LOX IMVI melanoma
[9] = system: HL-60(TB) leukemia
[10] = system: CCRF-CEM leukemia
[11] = system: MCF7 breast
[12] = system: SK-MEL-5 melanoma
[13] = system: HOP-62 NSCLC
[14] = system: IGROV1 ovarian
[15] = system: TK-10 renal
[16] = system: SF-268 CNS
[17] = system: U251 CNS
[18] = system: MOLT-4 leukemia
[19] = system: SR leukemia
[20] = system: RPMI-8226 leukemia
[21] = system: PC-3 prostate
[22] = system: MALME-3M melanoma
[23] = system: OVCAR-3 ovarian
[24] = system: A549 NSCLC
[25] = system: K-562 leukemia
[26] = system: A498 renal
[27] = system: COLO 205 colon
[28] = system: SK-MEL-28 melanoma
[29] = system: HCT-15 colon
[30] = system: HT29 colon
[31] = system: NCI-H522 lung
[32] = system: NCI-H226 lung
[33] = system: OVCAR-4 ovarian
[34] = system: SNB-19 CNS
[35] = system: UO-31 renal
[36] = system: SNB-75 CNS
[37] = system: NCI-H460 lung
[38] = system: UACC-257 melanoma
[39] = system: T-47D breast
[40] = system: DU-145 prostate
[41] = system: SN12C renal
[42] = system: SF-539 CNS
[43] = system: MDA-MB-435
[44] = system: UACC-62 melanoma
[45] = system: SF-295 CNS
[46] = system: KM12 colon
[47] = system: ACHN renal
[48] = system: NCI/ADR-RES ovarian
[49] = system: HCC-2998 colon
[50] = system: HS 578T breast
[51] = system: HCT-116 colon
[52] = system: SK-OV-3 ovarian
[53] = system: CAKI-1 renal
[54] = system: M14 melanoma
[55] = system: EKVX NSCLC
[56] = system: NCI-H23 lung
[57] = system: MDA-MB-231 breast
[58] = system: HOP-92 NSCLC

## CN1CCN(c2ccc(Nc3ncc4cc(C#N)c(=O)n(C5CCCC5)c4n3)cc2)CC1
[1]
  GI50: 3.18 µM
  TGI: > 47.9 µM
[2]
  GI50: 4.87 µM
  TGI: > 62.8 µM
[3]
  GI50: 2.65 µM
  TGI: 7.58 µM
[4]
  GI50: 0.942 µM
  TGI: > 100 µM
[5]
  GI50: 0.451 µM
  TGI: > 100 µM
[6]
  GI50: 0.693 µM
  TGI: 4.11 µM
[7]
  GI50: 0.477 µM
  TGI: 2.23 µM
[8]
  GI50: 0.58 µM
  TGI: 3.51 µM
[9]
  GI50: 0.595 µM
  TGI: 4.2 µM
[10]
  GI50: 0.597 µM
  TGI: > 20.9 µM
[11]
  GI50: 0.346 µM
  TGI: > 100 µM
[12]
  GI50: 3.17 µM
  TGI: > 100 µM
[13]
  GI50: 2.19 µM
  TGI: > 25.5 µM
[14]
  GI50: 0.605 µM
  TGI: > 23.3 µM
[15]
  GI50: 0.82 µM
  TGI: > 24.2 µM
[16]
  GI50: 1.48 µM
  TGI: 4.95 µM
[17]
  GI50: 1.74 µM
  TGI: > 100 µM
[18]
  GI50: 0.3 µM
  TGI: 3.17 µM
[19]
  GI50: 0.661 µM
  TGI: 3.86 µM
[20]
  GI50: 0.87 µM
  TGI: 5.33 µM
[21]
  GI50: 0.611 µM
  TGI: > 23.2 µM
[22]
  GI50: 1.9 µM
  TGI: > 100 µM
[23]
  GI50: 2.94 µM
  TGI: > 24.2 µM
[24]
  GI50: 2.05 µM
  TGI: > 100 µM
[25]
  GI50: 1.25 µM
  TGI: > 100 µM
[26]
  GI50: 0.199 µM
  TGI: 2.24 µM
[27]
  GI50: 0.797 µM
  TGI: > 100 µM
[28]
  GI50: 3.54 µM
  TGI: > 100 µM
[29]
  GI50: 0.94 µM
  TGI: > 100 µM
[30]
  GI50: 0.6 µM
  TGI: > 100 µM
[31]
  GI50: 4.29 µM
  TGI: > 100 µM
[32]
  GI50: 0.84 µM
  TGI: 10.6 µM
[33]
  GI50: 3.08 µM
  TGI: > 100 µM
[34]
  GI50: 1.77 µM
  TGI: 18.7 µM
[35]
  GI50: 0.218 µM
  TGI: 7.03 µM
[36]
  GI50: 0.336 µM
  TGI: 3.8 µM
[37]
  GI50: 0.64 µM
  TGI: > 49.3 µM
[38]
  GI50: 4.02 µM
  TGI: > 100 µM
[39]
  GI50: 2.32 µM
  TGI: > 100 µM
[40]
  GI50: 2.13 µM
  TGI: > 100 µM
[41]
  GI50: 0.917 µM
  TGI: 15.5 µM
[42]
  GI50: 1.28 µM
  TGI: 3.27 µM
[43]
  GI50: 3.1 µM
  TGI: > 100 µM
[44]
  GI50: 4 µM
  TGI: > 100 µM
[45]
  GI50: 1.19 µM
  TGI: > 42.6 µM
[46]
  GI50: 1.52 µM
  TGI: > 100 µM
[47]
  GI50: 0.309 µM
  TGI: 13.5 µM
[48]
  GI50: 2.94 µM
  TGI: > 33 µM
[49]
  GI50: 2.8 µM
  TGI: > 100 µM
[50]
  GI50: 0.807 µM
  TGI: 6.07 µM
[51]
  GI50: 0.587 µM
  TGI: > 100 µM
[52]
  GI50: 4.41 µM
  TGI: > 100 µM
[53]
  GI50: 0.346 µM
  TGI: 17.3 µM
[54]
  GI50: 1.39 µM
  TGI: > 100 µM
[55]
  GI50: 2.93 µM
  TGI: > 100 µM

## C=C1CC[C@@H](C(C)C)C[C@@H]2[C@H]([C@H](O)C[C@]2(C)O)[C@@]2(C)CC[C@@H]1O2
[1]
  GI50: 21.4 µM
  TGI: 46.4 µM
[56]
  GI50: 20.1 µM
  TGI: 42.7 µM
[2]
  GI50: 23.2 µM
  TGI: 50.6 µM
[3]
  GI50: 27.6 µM
  TGI: 55.1 µM
[4]
  GI50: 13.2 µM
  TGI: 26 µM
[5]
  GI50: 20.6 µM
  TGI: 39.9 µM
[6]
  GI50: 18.8 µM
  TGI: 33.4 µM
[7]
  GI50: 19.6 µM
  TGI: 34.1 µM
[8]
  GI50: 14.7 µM
  TGI: 27.9 µM
[9]
  GI50: 22.6 µM
  TGI: 57 µM
[11]
  GI50: 16.2 µM
  TGI: 29.7 µM
[12]
  GI50: 14.8 µM
  TGI: 28.3 µM
[13]
  GI50: 17.7 µM
  TGI: 31.6 µM
[14]
  GI50: 17.2 µM
  TGI: 33.4 µM
[15]
  GI50: 21.7 µM
  TGI: 43.7 µM
[16]
  GI50: 16.5 µM
  TGI: 30.1 µM
[17]
  GI50: 16.9 µM
  TGI: 30.5 µM
[18]
  GI50: 22.8 µM
  TGI: 51.2 µM
[19]
  GI50: 14.2 µM
  TGI: 30.9 µM
[20]
  GI50: 3.38 µM
  TGI: 17.2 µM
[22]
  GI50: 14.1 µM
  TGI: 28.6 µM
[23]
  GI50: 14.8 µM
  TGI: 29.5 µM
[24]
  GI50: 17 µM
  TGI: 32.7 µM
[25]
  GI50: 15.8 µM
  TGI: 29.2 µM
[26]
  GI50: 26 µM
  TGI: 42.9 µM
[27]
  GI50: 20 µM
  TGI: 34.9 µM
[29]
  GI50: 14.6 µM
  TGI: 27.7 µM
[30]
  GI50: 11.8 µM
  TGI: 26.5 µM
[31]
  GI50: 15.2 µM
  TGI: 29.8 µM
[32]
  GI50: 16.8 µM
  TGI: 31.5 µM
[33]
  GI50: 14.8 µM
  TGI: 28 µM
[34]
  GI50: 19.2 µM
  TGI: 33.2 µM
[35]
  GI50: 17.3 µM
  TGI: 31.1 µM
[36]
  GI50: 17 µM
  TGI: 38.9 µM
[37]
  GI50: 16.4 µM
  TGI: 29.9 µM
[38]
  GI50: 16.2 µM
  TGI: 31.3 µM
[39]
  GI50: 14.9 µM
  TGI: 33.1 µM
[57]
  GI50: 13.9 µM
  TGI: 28 µM
[40]
  GI50: 15.8 µM
  TGI: 31.4 µM
[41]
  GI50: 11.2 µM
  TGI: 23.3 µM
[42]
  GI50: 24.4 µM
  TGI: 43.3 µM
[43]
  GI50: 16.4 µM
  TGI: 32.1 µM
[45]
  GI50: 14.7 µM
  TGI: 32.3 µM
[46]
  GI50: 16.2 µM
  TGI: 32 µM
[47]
  GI50: 16.5 µM
  TGI: 30 µM
[48]
  GI50: 16.7 µM
  TGI: 33.2 µM
[49]
  GI50: 13.9 µM
  TGI: 26.9 µM
[50]
  GI50: 31.5 µM
  TGI: 82.7 µM
[51]
  GI50: 16.7 µM
  TGI: 30.3 µM
[52]
  GI50: 20.2 µM
  TGI: 38 µM
[53]
  GI50: 0.792 µM
  TGI: 18.7 µM
[54]
  GI50: 19.3 µM
  TGI: 33.4 µM
[58]
  GI50: 6.84 µM
  TGI: 20.7 µM
[55]
  GI50: 28 µM
  TGI: 55.9 µM
